# Laboratory results: US12435045B2, “Tyrosine kinase inhibitors and pharmaceutical application thereof” (JIANGSU CONCORD BIOTECHNOLOGY CO., LTD, priority 2021, dated 2025)
# Test system: 40 L of mesothelioma cell lines
# Assay: cell plate cloning experiment to detect cell proliferation
# Type: cell-based
# Settings: 30 μM pretreatment; 200 cells/well; results after 10 days; compared with gefitinib 30 μM; FIG. 2
# Description: Effects of the compound prepared in Example 1 and gefitinib were tested and compared. Experiment 1 included cell plate cloning experiments to detect cell proliferation.
# • (1) 30 μM of gefitinib was used to pretreat one group of 40 L of mesothelioma cell lines, 30 μM of the compound prepared in Example 1 were used to pretreat another group of 40 L of mesothelioma cell lines, and phosphate-buffered saline (PBS) was used as a blank control group; • (2) The 40 L of cell lines in different treatment groups were collected; the cells were counted under a microscope, the cells were inoculated in a six-well plate by adjusting the number of cells to 200 cells/well (2 mL) with corresponding complete medium, and the cells were cultured in an incubator containing 5% CO2 at 37° C.; • (3) Fresh complete medium was changed every 3 days; • (4) After about 7-10 days of continuous culture, the culture medium was discarded, the cells were carefully washed with 1×PBS 3 times, and 1 mL of 4% paraformaldehyde was added to each culture dish to fix the cells for 30 minutes. The paraformaldehyde was discarded, and the cells were washed again with 1×PBS 3 times. The cells were stained with crystal violet at room temperature for 10 min, the staining solution was discarded, and the cells were washed with 1×PBS 3 times; and • (5) the cells were pictured with a camera and counted for statistical analysis. 2. […]
smiles,measurement,value
"COc1cc2ncnc(Nc3ccc(F)c(Cl)c3)c2cc1NC(=O)CBr [Example 1, 4-((4-fluoro-3-chlorophenyl)amino)-7-methoxy-6-((N-bromoacetyl)amino)quinazoline]","ability in inhibiting the proliferation of tumor cells (plate cloning, colony count)",significantly better ability in inhibiting the proliferation of tumor cells than gefitinib
